Measurements as given in patent US5691373A, “Nonpeptide endothelin antagonists I” (Warner-Lambert Company, priority 1995, dated 1997).

How the values were obtained:
human ETB receptor = target: T1, human ETB receptor (Homo sapiens, UniProt P24530); experiment: ERBA-B: [125I]-ET-1 binding, recombinant human ETB receptor expressed in CHO-K1 cells; details: human cloned ETB receptor, read-out: ERBA-B IC50, human cloned receptor data
T1 construct: expressed in transfected cells; host or cells: CHO-K1 cells, pRc-CMW (so in the source) expression vector, electroporation; membranes used
T1 sequence (P24530 27-442): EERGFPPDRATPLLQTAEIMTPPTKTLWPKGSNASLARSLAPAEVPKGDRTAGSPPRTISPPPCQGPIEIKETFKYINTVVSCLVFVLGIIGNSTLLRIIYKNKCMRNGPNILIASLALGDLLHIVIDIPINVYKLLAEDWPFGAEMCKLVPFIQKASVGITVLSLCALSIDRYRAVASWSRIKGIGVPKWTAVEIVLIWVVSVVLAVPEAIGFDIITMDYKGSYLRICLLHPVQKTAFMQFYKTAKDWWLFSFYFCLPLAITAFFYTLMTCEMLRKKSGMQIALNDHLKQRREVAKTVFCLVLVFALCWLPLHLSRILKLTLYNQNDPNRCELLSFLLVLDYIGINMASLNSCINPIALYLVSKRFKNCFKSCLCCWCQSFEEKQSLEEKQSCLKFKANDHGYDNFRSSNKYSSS
Protocol: Count filters for radioactivity in gamma counter.
The above process has also been modified by using human recombinant CHO-K1 cells.
The tissue used for human ETB was recombinant human ETB receptor expressed in CHO-K1 cells (chinese hamster ovary cells). The gene for human ETB receptor was cloned and inserted into the pRc-CMW expression vector, then transfected into CHO-K1 cells by electroporation. For binding assays, membranes (0.7 mg protein) of CHO-K1 cells expressing recombinant human ETB receptor were used.
^d Human cloned receptor data

ETA = target: T2, ETA (Oryctolagus cuniculus, UniProt A5A8K3); details: ERBA-A IC50, [125I]-ET-1, rabbit renal artery vascular smooth muscle cells
T2 sequence (A5A8K3 21-427): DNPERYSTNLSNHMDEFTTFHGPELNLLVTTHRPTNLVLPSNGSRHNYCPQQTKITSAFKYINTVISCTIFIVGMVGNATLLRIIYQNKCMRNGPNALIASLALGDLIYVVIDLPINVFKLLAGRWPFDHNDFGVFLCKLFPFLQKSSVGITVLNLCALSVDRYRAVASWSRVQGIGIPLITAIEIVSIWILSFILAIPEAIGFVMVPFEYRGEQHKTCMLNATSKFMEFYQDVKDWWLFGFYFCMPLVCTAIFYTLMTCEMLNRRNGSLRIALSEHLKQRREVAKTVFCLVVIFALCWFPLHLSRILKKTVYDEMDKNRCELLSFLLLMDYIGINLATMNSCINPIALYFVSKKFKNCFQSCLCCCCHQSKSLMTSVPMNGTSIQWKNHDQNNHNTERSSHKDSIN

IC50 (human ETB receptor) | IC50 (ETA) | Compound
2200 nM | 16 nM | COc1ccc(C2(O)OC(=O)C(c3ccc4c(c3)OCO4)=C2Cc2cccc(OC)c2OC)cc1 (stereo not shown) [Example 308, 3-Benzo[1,3]dioxol-5-yl-4-(2,3-dimethoxy-benzyl)-5-hydroxy-5-(4-methoxy-phenyl)-5H-furan-2-one]
860 nM | 18 nM | COc1ccc(C2(O)OC(=O)C(c3ccc4c(c3)OCO4)=C2Cc2ccc(OCc3ccccc3)c(OC)c2)cc1 (stereo not shown) [Example 309, 3-Benzo[1,3]dioxol-5-yl-4-(4-benzyloxy-3-methoxybenzyl)-5-hydroxy-5-(4-methoxy-phenyl)-5H-furan-2-one]
8800 nM | 540 nM | COc1ccc(C2(O)OC(=O)C(c3ccc4c(c3)OCO4)=C2CC2=CC[C@H]3C[C@@H]2C3(C)C)cc1 (stereo partly shown) [Example 310, 3-Benzo[1,3]dioxol-5-yl-4-(6,6-dimethyl-bicyclo[3.1.1]-hept-2-en-2-ylmethyl)-5-hydroxy-5-(4-methoxy-phenyl)-5H-furan-2-one]
> 2500 nM | 99 nM | COc1ccc(C2(O)OC(=O)C(c3ccc4c(c3)OCO4)=C2Cc2ccccc2Oc2ccccc2)cc1 (stereo not shown) [Example 313, 3-Benzo[1,3]dioxol-5-yl-5-hydroxy-5-(4-methoxy-phenyl)-4-(2-phenoxy-benzyl) -5H-furan-2-one]
640 nM | 8.4 nM | COc1ccc(C2(O)OC(=O)C(c3ccc4c(c3)OCO4)=C2CC2CCCC2)cc1 (stereo not shown) [Example 314, 3-Benzo[1,3]dioxol-5-yl-4-cyclopentylmethyl-5-hydroxy-5-(4-methoxy-phenyl)-5H-furan-2-one]
11800 nM | 40 nM | CCC(CC)CC1=C(c2ccc3c(c2)OCO3)C(=O)OC1(O)c1ccc(OC)cc1 (stereo not shown) [Example 315, 3-Benzo[1,3]dioxol-5-yl-4-(2-ethyl-butyl)-5-hydroxy-5-(4-methoxy-phenyl)-5H -furan-2-one]
690 nM | 8.1 nM | COc1ccc(C2(O)OC(=O)C(c3ccc4c(c3)OCO4)=C2CC2CC=CCC2)cc1 (stereo not shown) [Example 316, 3-Benzo[1,3]dioxol-5-yl-4-cyclohex-3-enylmethyl-5-hydroxy-5-(4-methoxy-phenyl)-5H-furan-2-one]
180 nM | 5.6 nM | COc1ccc(C2(O)OC(=O)C(c3ccc4c(c3)OCO4)=C2CC(c2ccccc2)C2CCCC2)cc1 (stereo not shown) [Example 319, 3-Benzo[1,3]dioxol-5-yl-4-(2-cyclopentyl-2-phenylethyl)-5-hydroxy-5-(4methoxy-phenyl)-5H-furan-2-one]
4000 nM | 3300 nM | COc1ccc(C2(O)OC(=O)C(c3ccc4c(c3)OCO4)=C2CCC2CCCCC2)cc1 (stereo not shown) [Example 322, 3-Benzo-[1,3]dioxol-5-yl-4-(2-cyclohexyl-ethyl)-5-hydroxy-5-(4-methoxy-phenyl)-5H-furan-2-one]
5300 nM | 8.4 nM | COc1ccc(C2(O)OC(=O)C(c3ccc4c(c3)OCO4)=C2Cc2ccccc2Oc2ccc3c(c2)OCO3)cc1 (stereo not shown) [Example 324, 3-Benzo[1,3]dioxol-5-yl-4-[2-(benzo[1,3]dioxol-5-yloxy)-benzyl]-5-hydroxy-5-(4-methoxy-phenyl)-5H-furan-2-one]
> 25000 nM | 2500 nM | C=CCOc1ccc(OC)cc1C1=C(Cc2ccccc2)C(O)(c2ccc(OC)cc2)OC1=O (stereo not shown) [Example 337, 3-(2-Allyloxy-5-methoxy-phenyl)-4-benzyl-5-hydroxy-5-(4-methoxy-phenyl)-5H-furan-2-one]
1300 nM | 240 nM | COc1ccc(C2(O)OC(=O)C(c3ccc4c(c3)OCO4)=C2CC2CCCCCC2)cc1 (stereo not shown) [Example 339, 3-Benzo[1,3]dioxol-5-yl-4-cycloheptylmethyl-5-hydroxy-5-(4-methoxy-phenyl)-5H-furan-2-one]
630 nM | 69 nM | CCCCCC1=C(c2ccc3c(c2)OCO3)C(=O)OC1(O)c1ccc(OC)cc1 (stereo not shown) [Example 340, 3-Benzo[1,3]dioxol-5-yl-5-hydroxy-5-(4-methoxy-phenyl)-4-pentyl-5H-furan-2-one]
> 2500 nM | 80 nM | COc1ccc(C2(O)OC(=O)C(c3ccc4c(c3)OCO4)=C2Cc2ccccc2)c(OCC(=O)O)c1 (stereo not shown) [Example 341, [2(4-Benzo[1,3]dioxol-5-yl-3-benzyl-2-hydroxy-5-oxo-2,5-dihydro-furan-2-yl) -5-methoxy-phenoxy]-acetic acid]
2200 nM | 10 nM | C=CCOc1cc(OC)ccc1CC1=C(c2ccc3c(c2)OCO3)C(=O)OC1(O)c1ccc(OC)cc1 (stereo not shown) [Example 343, 4(2-Allyloxy-4-methoxy-benzyl)-3-benzo[1,3]dioxol-5-yl-5-hydroxy-5-(4-methoxy-phenyl)-5H-furan-2-one]
> 25000 nM | 380 nM | COc1ccc(C2(O)OC(=O)C(c3ccc4c(c3)OCO4)=C2Cc2ccc(OC)cc2OCC(=O)O)cc1 (stereo not shown) [Example 344, {2-[4-Benzo[1,3]dioxol-5-yl-2-hydroxy-2-(4-methoxy-phenyl)-5-oxo-2,5-dihydro-furan-3-ylmethyl]-5-methoxy-phenoxy}-acetic acid]
> 25000 nM | 7100 nM | O=C(O)/C(=C(/Cc1ccccc1)C(=O)c1ccc(-n2ccnc2)cc1)c1ccc2c(c1)OCO2 [Example 348, 2-Butenoic acid, 2-(1,3-benzodioxol-5-yl)-4-[4-(1H-imidazol-1-yl)phenyl]4-oxo-3-(phenylmethyl)-]
25000 nM | 510 nM | COc1ccc(C(=O)/C(Cc2ccc(C(=O)NCCN3CCOCC3)cc2)=C(\C(=O)O)c2ccc3c(c2)OCO3)cc1 [Example 349, 2-benzo[1,3]dioxol-5-yl-4-(4-methoxy-phenyl)-3-[4-(2-morpholin-4-yl-ethylcarbamoyl)-benzyl]-4-oxo-but-2-enoic acid]
1600 nM | 42 nM | COc1ccc(C(=O)/C(Cc2ccccc2)=C(\C(=O)O)c2ccc3c(c2)OCO3)cc1C [Example 355, Sodium 2-Benzo[1,3]dioxol-5-yl-3-benzyl-4-(4-methoxy-3-methyl-phenyl)-4-oxo-but-2-enoate]
1200 nM | 26 nM | CCOC(=O)COc1c(OC)cc(CC2=C(c3ccc4c(c3)OCO4)C(=O)OC2(O)c2ccc(OC)cc2)cc1OC (stereo not shown) [Example 362, {4-[4-Benzo[1,3]dioxol-5-yl-2-hydroxy-2-(4-methoxyphenyl)-5-oxo-2,5-dihydro-furan-3-ylmethyl]-2,6-dimethoxy-phenoxy}-acetic acid ethyl ester]
1100 nM | < 2.5 nM | CCOC(=O)COc1cc(CC2=C(c3ccc4c(c3)OCO4)C(=O)OC2(O)c2ccc(OC)cc2)cc(OC)c1OC (stereo not shown) [Example 363, {5-[4-Benzo[1,3]dioxol-5-yl-2-hydroxy-2-(4-methoxyphenyl)-5-oxo-2,5-dihydro-furan-3-ylmethyl]-2,3-dimethoxy-phenoxy}-acetic acid ethyl ester]
4900 nM | 7.3 nM | COc1ccc(C(=O)/C(Cc2ccc(NC(C)=O)cc2)=C(\C(=O)O)c2ccc3c(c2)OCO3)cc1 [Example 366, Potassium 3-(4-Acetylamino-benzyl)-2-benzo[1,3]dioxol-5-yl-4-(4-methoxy-phenyl)-4-oxo-but-2-enoate]
960 nM | < 25 nM | COc1ccc(C(=O)/C(Cc2ccccc2)=C(\C(=O)O)c2cc(OC)c3c(c2)OCO3)cc1 [Example 368, Sodium 3-Benzyl-2-(7-methoxy-benzo[1,3]dioxol-5-yl)-4-(4-methoxy-phenyl)-4-oxo-but-2-enoate]
1530 nM | 10 nM | COc1ccc(C(=O)/C(Cc2ccccc2)=C(\C(=O)O)c2cc(OC)c3c(c2)OCO3)cc1C [Example 370, Sodium 3-Benzyl-2-(7-methoxy-benzo[1,3]dioxol-5-yl)-4-(4-methoxy-3-methyl-phenyl)-4-oxo-but-2-enoate]
328 nM | 0.39 nM | COc1ccc(C(=O)/C(Cc2cc(OC)c(OC)c(OC)c2)=C(\C(=O)O)c2cc(OC)c3c(c2)OCO3)cc1 [Example 371]

Compound | IC50 (human ETB receptor) | IC50 (ETA)
COc1ccc(C(=O)/C(Cc2ccc(OC(C)C)cc2)=C(\C(=O)O)c2ccc3c(c2)OCO3)cc1 [Example 353, Sodium 2-Benzo[1,3]dioxol-5-yl-3-(4-isopropoxy-benzyl)-4-(4-methoxy-phenyl)-4-oxo-but-2-enoate] | > 250 nM | 4.4 nM
